Columns and labels:
STEP = target: T1, STEP (Homo sapiens, UniProt P54829); test: Second order rate of inactivation of STEP; type: biochemical; details: no GSH added; quadruplicate, mean ± S.D.
T1 sequence (P54829 1-565): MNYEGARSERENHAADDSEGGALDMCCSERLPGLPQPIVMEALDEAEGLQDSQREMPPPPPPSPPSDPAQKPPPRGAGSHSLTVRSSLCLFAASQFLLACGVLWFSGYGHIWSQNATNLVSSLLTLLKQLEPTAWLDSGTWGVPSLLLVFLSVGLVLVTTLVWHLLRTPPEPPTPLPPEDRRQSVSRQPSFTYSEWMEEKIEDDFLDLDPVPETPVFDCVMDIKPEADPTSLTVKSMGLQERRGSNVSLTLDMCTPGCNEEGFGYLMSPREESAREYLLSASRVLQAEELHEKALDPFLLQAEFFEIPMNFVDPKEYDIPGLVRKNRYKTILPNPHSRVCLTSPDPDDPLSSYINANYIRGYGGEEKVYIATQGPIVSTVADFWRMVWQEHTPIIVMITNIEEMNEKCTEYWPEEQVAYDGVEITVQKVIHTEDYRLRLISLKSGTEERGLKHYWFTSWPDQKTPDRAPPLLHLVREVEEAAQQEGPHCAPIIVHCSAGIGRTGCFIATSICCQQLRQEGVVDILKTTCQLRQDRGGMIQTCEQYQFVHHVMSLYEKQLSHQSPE

rat cortical neurons = details: ref [4]; cited from earlier work
[1] = test system: Alzheimer's disease (AD) mice; details: novel object recognition and Morris water maze tests, ref [4]; cited from earlier work

Kinact/Ki (STEP) | SMILES | phosphorylation levels of STEP substrates GluN2B, Pyk2 and ERK1/2 (rat cortical neurons) | cognitive deficits [1]
161,000 ± 26,000 M^-1S^-1 | O=C(Nc1cc(C(F)(F)F)cc2c1SSSSS2)C(F)(F)F [Compound 23] |  | 
 | Cl.Nc1cc(C(F)(F)F)cc2c1SSSSS2 [TC-2153, 8-(trifluoromethyl)-1,2,3,4,5-benzopentathiepin-6-amine hydrochloride] | enhanced the phosphorylation levels | reduced cognitive deficits

— publication PMC4334692 (Bioorganic & medicinal chemistry letters, 2015)
